Measured values published in PubChem BioAssay (NCI).
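1) Cells in 96-well plates. 2) Compound, 48 h, 5 concentrations. 3) Linear interpolation between surrounding doses. 4) Unreached endpoint = highest concentration. GI50: concentration for 50% inhibition of growth. TGI: concentration producing complete growth inhibition.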

Assays:
Assay in all cases: growth of human tumour cells (NCI), 48 h
HCT-15 colon = system: HCT-15 colon
HL-60(TB) leukemia = system: HL-60(TB) leukemia
SNB-75 CNS = system: SNB-75 CNS
UACC-257 melanoma = system: UACC-257 melanoma
SW-620 colon = system: SW-620 colon
KM12 colon = system: KM12 colon
SK-MEL-28 melanoma = system: SK-MEL-28 melanoma
IGROV1 ovarian = system: IGROV1 ovarian
OVCAR-5 ovarian = system: OVCAR-5 ovarian

COc1ccc(CCN2CCC(C#N)(c3ccc(OC)c(OC)c3)CC2)cc1OC
TGI (HCT-15 colon): > 100 µM
TGI (HL-60(TB) leukemia): > 100 µM
TGI (SNB-75 CNS): > 100 µM
TGI (UACC-257 melanoma): > 100 µM
TGI (SW-620 colon): > 100 µM
TGI (KM12 colon): > 100 µM
TGI (SK-MEL-28 melanoma): > 100 µM
TGI (IGROV1 ovarian): > 100 µM
TGI (OVCAR-5 ovarian): > 100 µM

COc1ccc2c(c1)c(Cc1c(C)n(C)c3ccc(OC)cc13)c(C)n2C
TGI (HCT-15 colon): > 100 µM
TGI (HL-60(TB) leukemia): > 100 µM
TGI (SNB-75 CNS): > 100 µM
TGI (UACC-257 melanoma): > 100 µM
TGI (SW-620 colon): > 100 µM
TGI (KM12 colon): > 100 µM
TGI (SK-MEL-28 melanoma): > 100 µM
TGI (IGROV1 ovarian): > 100 µM
TGI (OVCAR-5 ovarian): > 100 µM

C/C(C=O)=C1\C(O)C[C@]1(C)C1CC(C)(C)CC1O (stereo partly specified)
TGI (HL-60(TB) leukemia): > 100 µM
TGI (UACC-257 melanoma): > 100 µM
TGI (SW-620 colon): > 100 µM
TGI (KM12 colon): > 100 µM
TGI (SK-MEL-28 melanoma): > 100 µM
TGI (OVCAR-5 ovarian): > 100 µM

O=C(CCN(CCO)CCO)Nc1ccc2c(c1)C(=O)c1ccc(NC(=O)CCN(CCO)CCO)cc1C2=O
TGI (HCT-15 colon): 19.8 µM
TGI (HL-60(TB) leukemia): 45.7 µM
TGI (SNB-75 CNS): > 100 µM
TGI (UACC-257 melanoma): > 100 µM
TGI (SW-620 colon): 33.4 µM
TGI (KM12 colon): 31.2 µM
TGI (SK-MEL-28 melanoma): 62.6 µM
TGI (IGROV1 ovarian): 50.7 µM
TGI (OVCAR-5 ovarian): > 100 µM

C1CSCC2(COC2)CS1
TGI (SNB-75 CNS): > 100 µM
TGI (UACC-257 melanoma): > 100 µM
TGI (SW-620 colon): > 100 µM
TGI (KM12 colon): > 100 µM
TGI (SK-MEL-28 melanoma): > 100 µM

CCOc1ccc(NCC(=O)N2CC(=O)Nc3ccccc32)cc1
TGI (HCT-15 colon): > 100 µM
TGI (HL-60(TB) leukemia): > 100 µM
TGI (SNB-75 CNS): > 100 µM
TGI (UACC-257 melanoma): > 100 µM
TGI (SW-620 colon): > 100 µM
TGI (KM12 colon): > 100 µM
TGI (SK-MEL-28 melanoma): > 100 µM
TGI (OVCAR-5 ovarian): > 100 µM

Clc1cc(Cl)cc(N2N=C(c3cccc(Nc4ccncc4)c3)CC2c2ccccc2)c1 (stereo unspecified)
GI50 (HCT-15 colon): 1.66 µM
TGI (HCT-15 colon): 3.31 µM
GI50 (HL-60(TB) leukemia): 1.9 µM
TGI (HL-60(TB) leukemia): 5.2 µM
GI50 (SNB-75 CNS): 1.45 µM
TGI (SNB-75 CNS): 5.38 µM
GI50 (SW-620 colon): 1.85 µM
TGI (SW-620 colon): 3.73 µM
GI50 (KM12 colon): 1.86 µM
TGI (KM12 colon): 3.7 µM
GI50 (SK-MEL-28 melanoma): 1.76 µM
TGI (SK-MEL-28 melanoma): 3.21 µM
GI50 (IGROV1 ovarian): 1.54 µM
TGI (IGROV1 ovarian): 3.04 µM
GI50 (OVCAR-5 ovarian): 2.56 µM
TGI (OVCAR-5 ovarian): 8.74 µM

CC(SC1=CC(=O)c2c(Cl)ccc(O)c2C1=O)C(=O)O (stereo unspecified)
TGI (HCT-15 colon): 33.9 µM
TGI (HL-60(TB) leukemia): 12.2 µM
TGI (SNB-75 CNS): 31 µM
TGI (UACC-257 melanoma): 30.3 µM
TGI (SW-620 colon): 36.2 µM
TGI (KM12 colon): 38.3 µM
TGI (SK-MEL-28 melanoma): 32.9 µM
TGI (IGROV1 ovarian): 33.4 µM

Cc1ccc(S(=O)(=O)N/N=C2\C(=O)C3CC2C(Cl)C3Cl)cc1 (stereo unspecified)
TGI (HCT-15 colon): > 100 µM
TGI (HL-60(TB) leukemia): > 100 µM
TGI (SNB-75 CNS): > 100 µM
TGI (UACC-257 melanoma): > 100 µM
TGI (SW-620 colon): > 100 µM
TGI (SK-MEL-28 melanoma): > 100 µM
TGI (IGROV1 ovarian): > 100 µM
TGI (OVCAR-5 ovarian): > 100 µM

O=S(=O)(CC1=NC2C=CC=CC2N=C1)NCc1ccccc1 (stereo unspecified)
TGI (HCT-15 colon): > 100 µM
TGI (HL-60(TB) leukemia): > 100 µM
TGI (SNB-75 CNS): > 100 µM
TGI (SW-620 colon): > 100 µM
TGI (KM12 colon): > 100 µM
TGI (SK-MEL-28 melanoma): > 100 µM
TGI (IGROV1 ovarian): > 100 µM
TGI (OVCAR-5 ovarian): > 100 µM
